# Test results as given in US10391095B2, “DNA-PK inhibitors” (Vertex Pharmaceuticals Incorporated, priority 2012, dated 2019).
# Target: DNA-PK (Homo sapiens, UniProt P78527)
# Experiment: DNA-PK inhibition assay (radiometric, 33P-ATP)
# Type: biochemical
# Conditions: 100 μM ATP, competitive tight-binding fit
# Outline: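 Approx. 6 nM DNA-PK with 10 µg/mL sheared dsDNA, 0.8 mg/mL peptide substrate and 100 µM 33P-ATP in HEPES pH 7.5, 10 mM MgCl2; 45 min, phosphoric acid quench. Phosphopeptide captured on filter plates and counted by scintillation; Ki from a competitive tight-binding model fit.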
row,Ki,SMILES
1,< 30 nM,CNC(=O)c1ccc([C@H](C)CNc2cc(-c3ccc(C(C)=O)cc3)ncn2)c(OC)c1 [Compound 319]
2,< 30 nM,CNC(=O)c1c(F)cnc2c([C@H](C)CNc3cc(-c4cnc5c(c4)OCCO5)ncn3)cccc12 [Compound 937]
3,< 30 nM,CNC(=O)c1ccnc2c([C@H](C)CNc3cc(-c4cnc(OC)c(Cl)c4)ncn3)cccc12 [Compound 949]
4,< 30 nM,CNC(=O)c1ccc([C@H](C)CNc2cc(-c3ccc(NC(CO)CO)nc3)ncn2)c(OC)c1 [Compound 353]
5,< 30 nM,CNC(=O)c1ccnc2c([C@H](C)CNc3cc(-c4ccc(C(=O)O)cc4)ncn3)cccc12 [Compound 672]
6,< 30 nM,CC(CNc1cc(-c2ccc(N3CCN(C)CC3)nc2)ncn1)c1ccc(F)cc1OC1CC1 (stereo not shown) [Compound 271]
7,< 30 nM,CNCCNc1ccc(-c2cc(NC[C@@H](C)c3ccnc4c3OCC4)ncn2)cn1 [Compound 483]
8,< 30 nM,CC(CNc1cc(-c2ccc(C(=O)NCCC#N)cc2)ncn1)c1ccnc2cccnc12 (stereo not shown) [Compound 431]
9,< 30 nM,CNC(=O)c1ccc([C@H](C)CNc2cc(-c3ccc(C)nc3)ncn2)c2ncccc12 [Compound 485]
10,< 30 nM,CCNc1ncc(-c2cc(NC[C@@H](C)c3cccc4c(C(=O)NC)c(F)cnc34)ncn2)cn1 [Compound 978]
11,< 30 nM,CNC(=O)c1ccnc2c([C@H](C)CNc3cc(-c4ccc(S(C)(=O)=O)cc4)ncn3)cccc12 [Compound 675]
12,< 30 nM,CNC(=O)c1ccnc2c([C@H](C)CNc3cc(-c4cnc(CO)c(OC)c4)ncn3)ccc(F)c12 [Compound 916]
13,< 30 nM,"Cc1ccc(-c2cc(NC[C@@H](C)c3cccc4c3OC(CO)C4)ncn2)cn1 (single isomer, unassigned) [Compound 538]"
14,< 30 nM,CNC(=O)c1ccc([C@H](C)CNc2cc(-c3ccc(N(C)C)nc3)ncn2)c(OC)c1 [Compound 359]
15,< 30 nM,CCOc1ncc(-c2cc(NC[C@@H](C)c3ccc(F)c4c(C(=O)NC)ccnc34)ncn2)cn1 [Compound 652]
16,< 30 nM,COc1cc(Br)ccc1C(C)CNc1cc(-c2ccc(C)nc2)ncn1 (stereo not shown) [Compound 423]
17,< 30 nM,COCCn1ncc2cc(-c3cc(NCC(C)c4cscc4OC)ncn3)cnc21 (stereo not shown) [Compound 227]
18,< 30 nM,C[C@H](CNc1cc(-c2ccc(N)nc2)ncn1)c1ccnc2c1OCCO2 [Compound 459]
19,< 30 nM,Cc1ccc(-c2cc(NC[C@@H](C)c3cccc4nccnc34)ncn2)cn1 [Compound 445]
20,< 30 nM,CNC(=O)c1ccnc2c([C@H](C)CNc3cc(-c4cnc(C5CC5)nc4)ncn3)cccc12 [Compound 790]
21,< 30 nM,CNC(=O)c1c(N(C)C)cnc2c([C@H](C)CNc3cc(-c4ccc(C)nc4)ncn3)cccc12 [Compound 765]
22,< 30 nM,CNC(=O)c1ccnc2c([C@H](C)CNc3cc(-c4ccc(NCCNCCO)nc4)ncn3)cccc12 [Compound 707]
23,< 30 nM,CCOc1ccc(-c2cc(NC[C@@H](C)c3cccc4c(C(=O)NC)ccnc34)ncn2)cn1 [Compound 933]
24,< 30 nM,Cc1ncc(-c2cc(NC[C@@H](C)c3cccc4c(=O)n(C)cnc34)ncn2)cn1 [Compound 697]
25,< 30 nM,CNCCCNc1ccc(-c2cc(NC[C@@H](C)c3ccc(C(=O)NC)cc3OC)ncn2)cn1 [Compound 356]
26,< 30 nM,COCCn1ncc2cc(-c3cc(NCC(C)c4cnccc4OC4CC4)ncn3)cnc21 (stereo not shown) [Compound 176]

row,Ki,SMILES
1,< 30 nM,CNC(=O)c1ccnc2c([C@H](C)CNc3cc(-c4ccc(C5(N)CC5)nc4)ncn3)ccc(F)c12 [Compound 940]
2,< 30 nM,C[C@H](CNc1cc(-c2ccc(NC3CC3)nc2)ncn1)c1ccnc2c1OCCO2 [Compound 465]
3,< 30 nM,CNC(=O)c1ccc([C@H](C)CNc2cc(-c3ccc(NC)nc3)ncn2)c(OC)c1 [Compound 358]
4,< 30 nM,CNC(=O)c1ccnc2c([C@H](C)CNc3cc(-c4ccnc(OC)c4)ncn3)cccc12 [Compound 869]
5,< 30 nM,CNC(=O)c1c(F)cnc2c([C@H](C)CNc3cc(-c4ccc(NC5CC5)nc4)ncn3)cccc12 [Compound 921]
6,< 30 nM,CNC(=O)c1ccc(C(C)CNc2cc(-c3cnc4[nH]ncc4c3)ncn2)c(OC)c1 (stereo not shown) [Compound 167]
7,< 30 nM,CC(CNc1cc(-c2cnc3c(cnn3CCO)c2)ncn1)c1ccc(F)cc1OC1CC1 (stereo not shown) [Compound 275]
8,< 30 nM,CNC(=O)c1ccnc2c([C@H](C)CNc3cc(-c4ccc(N5CCOC(C)(C)C5)nc4)ncn3)cccc12 [Compound 733]
9,< 30 nM,CNC(=O)c1ccnc2c([C@H](C)CNc3cc(-c4cnc(NC)nc4)ncn3)ccc(F)c12 [Compound 623]
10,< 30 nM,CNC(=O)c1c(F)cnc2c([C@H](C)CNc3cc(-c4cnc(C#N)c(OC)c4)ncn3)cccc12 [Compound 918]
11,< 30 nM,CNC(=O)c1ccnc2c([C@H](C)CNc3cc(-c4cnc5c(c4)CCN5)ncn3)cccc12 [Compound 954]
12,< 30 nM,COc1ccccc1[C@H](C)CNc1cc(-c2ccc(Nc3nc[nH]n3)nc2)ncn1 [Compound 198]
13,< 30 nM,Cc1ccc(-c2cc(NCC(C)c3cccc4cc(F)cnc34)ncn2)cn1 (stereo not shown) [Compound 346]
14,< 30 nM,CNC(=O)c1ccnc2c([C@H](C)CNc3cc(-c4cnc5c(c4)OCCO5)ncn3)ccc(F)c12 [Compound 936]
15,< 30 nM,CNC(=O)c1ccnc2c([C@H](C)CNc3cc(-c4cnc(OC)c(C)c4)ncn3)cccc12 [Compound 945]
16,< 30 nM,CNC(=O)c1c(F)cnc2c([C@H](C)CNc3cc(-c4ccc(OCC5CC5)nc4)ncn3)cccc12 [Compound 896]
17,< 30 nM,C[C@H](CNc1cc(-c2ccc(N(C)C)nc2)ncn1)c1ccnc2c1OCCO2 [Compound 460]
18,< 30 nM,CC(CNc1cc(-c2ccc(N3CCN(C)CC3)nc2)ncn1)c1cnccc1OC1CC1 (stereo not shown) [Compound 177]
19,< 30 nM,CONC(=O)c1ccc(C(C)CNc2cc(-c3ccc(C)nc3)ncn2)c(OC)c1 (stereo not shown) [Compound 157]
20,< 30 nM,CNC(=O)c1ccnc2c([C@H](C)CNc3cc(-c4ccc(F)nc4)ncn3)ccc(F)c12 [Compound 907]
21,< 30 nM,CNC(=O)c1ccc([C@H](C)CNc2cc(-c3cnc4c(c3)OCCN4C)ncn2)c(OC)c1 [Compound 490]
22,< 30 nM,CNC(=O)c1ccnc2c([C@H](C)CNc3cc(-c4cnc(F)c(C)c4)ncn3)cccc12 [Compound 951]
23,< 30 nM,CNC(=O)c1ccnc2c([C@H](C)CNc3cc(-c4ccc(NCCN5CCNC5=O)nc4)ncn3)cccc12 [Compound 719]
24,< 30 nM,"CNC(=O)c1ccnc2c([C@H](C)CNc3cc(-c4ccc(N5CCN6C(=O)OCC6C5)nc4)ncn3)cccc12 (single isomer, unassigned) [Compound 731]"
25,< 30 nM,CCOc1ccccc1[C@H](C)CNc1cc(-c2ccc(C)nc2)ncn1 [Compound 110]
26,< 30 nM,COc1sccc1C(C)CNc1cc(-c2cnc3c(cnn3CCO)c2)ncn1 (stereo not shown) [Compound 259]

row,Ki,SMILES
1,< 30 nM,CNC(=O)c1ccnc2c([C@H](C)CNc3cc(-c4cnc5c(cnn5CCO)c4)ncn3)cccc12 [Compound 580]
2,< 30 nM,CNC(=O)c1ccnc2c([C@H](C)CNc3cc(-c4cnc(CN(C)C)nc4)ncn3)cccc12 [Compound 885]
3,< 30 nM,CNC(=O)c1ccnc2c([C@H](C)CNc3cc(-c4ccc5c(c4)CNCC5)ncn3)cccc12 [Compound 801]
4,< 30 nM,CNC(=O)c1ccnc2c([C@H](C)CNc3cc(-c4cnc(C(C)(C)OC)nc4)ncn3)ccc(F)c12 [Compound 929]
5,< 30 nM,COc1cc(C(=O)NCC(F)(F)F)ccc1C(C)CNc1cc(-c2ccc(C)nc2)ncn1 (stereo not shown) [Compound 218]
6,< 30 nM,CCOc1ccccc1C(C)CNc1cc(-c2ccc(N3CCN(C)CC3)nc2)ncn1 (stereo not shown) [Compound 92]
7,< 30 nM,CNc1ncc(-c2cc(NC[C@@H](C)c3ccnc4cccnc34)ncn2)cn1 [Compound 497]
8,< 30 nM,CNC(=O)c1ccnc2c([C@H](C)CNc3cc(-c4ccc(OC)cc4)ncn3)cccc12 [Compound 682]
9,< 30 nM,CNC(=O)c1ccc(C(C)CNc2cc(-c3cnc(C)nc3)ncn2)c(OC)c1 (stereo not shown) [Compound 193]
10,< 30 nM,CNC(=O)c1ccc([C@H](C)CNc2cc(-c3ccc(C)nc3)ncn2)c(OC)c1 [Compound 175]
11,< 30 nM,Cc1ncc(-c2cc(NC[C@@H](C)c3cccc4nccnc34)ncn2)cn1 [Compound 662]
12,< 30 nM,CNC(=O)c1ccc([C@H](C)CNc2cc(-c3ccc(NCC(F)F)nc3)ncn2)c(OC)c1 [Compound 390]
13,< 30 nM,CNC(=O)c1ccc(C(C)CNc2cc(-c3cn(C4COC4)c4ncc(F)cc34)ncn2)c(OC)c1 (stereo not shown) [Compound 449]
14,< 30 nM,CC(CNc1cc(-c2cnc3c(cnn3CCO)c2)ncn1)c1ccnc2cccnc12 (stereo not shown) [Compound 400]
15,< 30 nM,CNC(=O)c1ccnc2c([C@H](C)CNc3cc(-c4ccc(OCC5CC5)nc4)ncn3)ccc(F)c12 [Compound 904]
16,< 30 nM,CNC(=O)c1ccnc2c([C@H](C)CNc3cc(-n4ccnc4)ncn3)cccc12 [Compound 743]
17,< 30 nM,CNC(=O)c1ccnc2c([C@H](C)CNc3cc(-c4cncc(C)c4)ncn3)ccc(F)c12 [Compound 651]
18,< 30 nM,CNC(=O)c1ccnc2c([C@H](C)CNc3cc(-c4ccc(N5C[C@@H]6CCN(C)[C@@H]6C5)nc4)ncn3)cccc12 [Compound 720]
19,< 30 nM,Cc1ccc(-c2cc(NCC(C)c3cncnc3OC3CCC3)ncn2)cn1 (stereo not shown) [Compound 299]
20,< 30 nM,COc1cc(SC)ccc1C(C)CNc1cc(-c2ccc(N3CCN(C(C)=O)CC3)nc2)ncn1 (stereo not shown) [Compound 73]
21,< 30 nM,C[C@H](CNc1cc(-c2ccc(C(=O)NCCC#N)cc2)ncn1)c1ccnc2c1OCC2 [Compound 432]
22,< 30 nM,COc1ccccc1[C@H](C)CNc1cc(-c2ccnc(NCCCO)c2)ncn1 [Compound 206]
23,< 30 nM,CNC(=O)c1ccnc2c([C@H](C)CNc3cc(-c4cnc5c(c4)CN(C(C)=O)CC5)ncn3)cccc12 [Compound 815]
24,< 30 nM,CCOc1ncc(-c2cc(NC[C@@H](C)c3ccccc3OC)ncn2)cn1 [Compound 125]
